Reference: US20030092739A1, “Heterocyclic compounds” (priority 2001, published 2003)

What follows are compounds tested on aphids (assay: Biological Test On Aphid (spray on cabbage leaf in Petri dish)). Conditions: 1st replicate; 20 aphids on cabbage leaf; 9.6% w/w pesticide reagent diluted 1000 times with water, sprayed; examined 24 hours later.
Format: in vivo
Procedure: The compound obtained from Example 1 was mixed with a solvent to form a 9.6% w/w pesticide reagent. An 8 cm×8 cm piece of clean cabbage leaf was placed on a lump of wet cotton in a Petri dish, and then 20 aphids were put on the cabbage leaf in the Petri dish. The thus formed pesticide reagent was diluted 1000 times with water to form a dilution that was then sprayed onto the cabbage leaf in the Petri dish with a predetermined amount. The number of dead aphids was examined 24 hours later, and the kill ratio was calculated. The test was carried out through four replicates.
Example 9 was repeated, except that the compound employed in Example 9 was replaced by the compound obtained from a respective one of the Examples 2 to 8.
Example 9 was repeated, except that the compound employed in Example 9 was replaced by imidachloprid, a heterocyclic compound of the formula disclosed in U.S. Pat. No. 4,742,060 that can be useful as pesticides.

SMILES | Number of dead aphids 1st
CC(C)Oc1ccccc1OCc1ccc(Cl)nc1 [Example 11, 2-chloro-5-(2-isopropoxy-phenoxymethyl)-pyridine] | 16
CS/C(C)=N/OCc1ccc(Cl)nc1 [Example 10, N-(6-chloro-pyridin-3-ylmethoxy)-thioacetimidic Acid Methyl Ester] | 18
Clc1ccc(COc2cccc3ccccc23)cn1 [Example 13, 2-chloro-5-(naphthalen-1-yloxymethyl)-pyridine] | 18
CC1(C)Cc2cccc(OCc3ccc(Cl)nc3)c2O1 [Example 14, 2-chloro-5-(2,2-dimethyl-2,3-dihydro-benzofuran-7-yloxymethyl)-pyridine] | 17
CNC(=O)Nc1nc2ccccc2n1Cc1csc(Cl)n1 [Example 16, 1-[1-(2-chloro-thiazol-4-ylmethyl)-1H-benzoimidazol-2-yl]-3-methyl-urea] | 19
CNC(=O)Nc1nc2ccccc2n1Cc1ccc(Cl)nc1 [Example 15, 1-[1-(6-chloro-pyridin-3-ylmethyl)-1H-benzoimidazol-2-yl]-3-mehtyl-urea] | 17
N#CNCc1ccc(Cl)nc1 [Example 9, 6-chloro-pyridin-3-ylmethyl-cyanamide] | 19
CSc1c(C)cc(OCc2ccc(Cl)nc2)cc1C [Example 12, 2-chloro-5-(3,5-dimethyl-4-methylsulfanyl-phenoxymethyl)-pyridine] | 20
O=[N+]([O-])/N=C1\NCCN1Cc1ccc(Cl)nc1 [Comparative Example 1, imidachloprid, reference compound] | 17

Same assay, conditions: 2nd replicate; 20 aphids on cabbage leaf; 9.6% w/w pesticide reagent diluted 1000 times with water, sprayed; examined 24 hours later

SMILES | Number of dead aphids 2nd
CC(C)Oc1ccccc1OCc1ccc(Cl)nc1 [Example 11, 2-chloro-5-(2-isopropoxy-phenoxymethyl)-pyridine] | 19
CS/C(C)=N/OCc1ccc(Cl)nc1 [Example 10, N-(6-chloro-pyridin-3-ylmethoxy)-thioacetimidic Acid Methyl Ester] | 17
Clc1ccc(COc2cccc3ccccc23)cn1 [Example 13, 2-chloro-5-(naphthalen-1-yloxymethyl)-pyridine] | 17
CC1(C)Cc2cccc(OCc3ccc(Cl)nc3)c2O1 [Example 14, 2-chloro-5-(2,2-dimethyl-2,3-dihydro-benzofuran-7-yloxymethyl)-pyridine] | 16
CNC(=O)Nc1nc2ccccc2n1Cc1csc(Cl)n1 [Example 16, 1-[1-(2-chloro-thiazol-4-ylmethyl)-1H-benzoimidazol-2-yl]-3-methyl-urea] | 16
CNC(=O)Nc1nc2ccccc2n1Cc1ccc(Cl)nc1 [Example 15, 1-[1-(6-chloro-pyridin-3-ylmethyl)-1H-benzoimidazol-2-yl]-3-mehtyl-urea] | 17
N#CNCc1ccc(Cl)nc1 [Example 9, 6-chloro-pyridin-3-ylmethyl-cyanamide] | 19
CSc1c(C)cc(OCc2ccc(Cl)nc2)cc1C [Example 12, 2-chloro-5-(3,5-dimethyl-4-methylsulfanyl-phenoxymethyl)-pyridine] | 19
O=[N+]([O-])/N=C1\NCCN1Cc1ccc(Cl)nc1 [Comparative Example 1, imidachloprid, reference compound] | 17

Same assay, conditions: 3rd replicate; 20 aphids on cabbage leaf; 9.6% w/w pesticide reagent diluted 1000 times with water, sprayed; examined 24 hours later

SMILES | Number of dead aphids 3rd
CC(C)Oc1ccccc1OCc1ccc(Cl)nc1 [Example 11, 2-chloro-5-(2-isopropoxy-phenoxymethyl)-pyridine] | 18
CS/C(C)=N/OCc1ccc(Cl)nc1 [Example 10, N-(6-chloro-pyridin-3-ylmethoxy)-thioacetimidic Acid Methyl Ester] | 18
Clc1ccc(COc2cccc3ccccc23)cn1 [Example 13, 2-chloro-5-(naphthalen-1-yloxymethyl)-pyridine] | 16
CC1(C)Cc2cccc(OCc3ccc(Cl)nc3)c2O1 [Example 14, 2-chloro-5-(2,2-dimethyl-2,3-dihydro-benzofuran-7-yloxymethyl)-pyridine] | 18
CNC(=O)Nc1nc2ccccc2n1Cc1csc(Cl)n1 [Example 16, 1-[1-(2-chloro-thiazol-4-ylmethyl)-1H-benzoimidazol-2-yl]-3-methyl-urea] | 16
CNC(=O)Nc1nc2ccccc2n1Cc1ccc(Cl)nc1 [Example 15, 1-[1-(6-chloro-pyridin-3-ylmethyl)-1H-benzoimidazol-2-yl]-3-mehtyl-urea] | 16
N#CNCc1ccc(Cl)nc1 [Example 9, 6-chloro-pyridin-3-ylmethyl-cyanamide] | 20
CSc1c(C)cc(OCc2ccc(Cl)nc2)cc1C [Example 12, 2-chloro-5-(3,5-dimethyl-4-methylsulfanyl-phenoxymethyl)-pyridine] | 19
O=[N+]([O-])/N=C1\NCCN1Cc1ccc(Cl)nc1 [Comparative Example 1, imidachloprid, reference compound] | 18

Same assay, conditions: 4th replicate; 20 aphids on cabbage leaf; 9.6% w/w pesticide reagent diluted 1000 times with water, sprayed; examined 24 hours later

SMILES | Number of dead aphids 4th
CC(C)Oc1ccccc1OCc1ccc(Cl)nc1 [Example 11, 2-chloro-5-(2-isopropoxy-phenoxymethyl)-pyridine] | 18
CS/C(C)=N/OCc1ccc(Cl)nc1 [Example 10, N-(6-chloro-pyridin-3-ylmethoxy)-thioacetimidic Acid Methyl Ester] | 17
Clc1ccc(COc2cccc3ccccc23)cn1 [Example 13, 2-chloro-5-(naphthalen-1-yloxymethyl)-pyridine] | 17
CC1(C)Cc2cccc(OCc3ccc(Cl)nc3)c2O1 [Example 14, 2-chloro-5-(2,2-dimethyl-2,3-dihydro-benzofuran-7-yloxymethyl)-pyridine] | 16
CNC(=O)Nc1nc2ccccc2n1Cc1csc(Cl)n1 [Example 16, 1-[1-(2-chloro-thiazol-4-ylmethyl)-1H-benzoimidazol-2-yl]-3-methyl-urea] | 16
CNC(=O)Nc1nc2ccccc2n1Cc1ccc(Cl)nc1 [Example 15, 1-[1-(6-chloro-pyridin-3-ylmethyl)-1H-benzoimidazol-2-yl]-3-mehtyl-urea] | 16
N#CNCc1ccc(Cl)nc1 [Example 9, 6-chloro-pyridin-3-ylmethyl-cyanamide] | 20
CSc1c(C)cc(OCc2ccc(Cl)nc2)cc1C [Example 12, 2-chloro-5-(3,5-dimethyl-4-methylsulfanyl-phenoxymethyl)-pyridine] | 19
O=[N+]([O-])/N=C1\NCCN1Cc1ccc(Cl)nc1 [Comparative Example 1, imidachloprid, reference compound] | 17

Same assay, conditions: 24 h, read-out: Kill ratio

SMILES | pest or weed control at 96 µg/mL
CNC(=O)Nc1nc2ccccc2n1Cc1ccc(Cl)nc1 [Example 15, 1-[1-(6-chloro-pyridin-3-ylmethyl)-1H-benzoimidazol-2-yl]-3-mehtyl-urea] | 82%
N#CNCc1ccc(Cl)nc1 [Example 9, 6-chloro-pyridin-3-ylmethyl-cyanamide] | 96.2%

Same assay, conditions: average of four replicates; 20 aphids; 9.6% w/w reagent diluted 1000 times; 24 hours

SMILES | Number of dead aphids Average
CC(C)Oc1ccccc1OCc1ccc(Cl)nc1 [Example 11, 2-chloro-5-(2-isopropoxy-phenoxymethyl)-pyridine] | 17.75
CS/C(C)=N/OCc1ccc(Cl)nc1 [Example 10, N-(6-chloro-pyridin-3-ylmethoxy)-thioacetimidic Acid Methyl Ester] | 17.5
Clc1ccc(COc2cccc3ccccc23)cn1 [Example 13, 2-chloro-5-(naphthalen-1-yloxymethyl)-pyridine] | 17
CC1(C)Cc2cccc(OCc3ccc(Cl)nc3)c2O1 [Example 14, 2-chloro-5-(2,2-dimethyl-2,3-dihydro-benzofuran-7-yloxymethyl)-pyridine] | 16.75
CNC(=O)Nc1nc2ccccc2n1Cc1csc(Cl)n1 [Example 16, 1-[1-(2-chloro-thiazol-4-ylmethyl)-1H-benzoimidazol-2-yl]-3-methyl-urea] | 16.75
CNC(=O)Nc1nc2ccccc2n1Cc1ccc(Cl)nc1 [Example 15, 1-[1-(6-chloro-pyridin-3-ylmethyl)-1H-benzoimidazol-2-yl]-3-mehtyl-urea] | 16.5
N#CNCc1ccc(Cl)nc1 [Example 9, 6-chloro-pyridin-3-ylmethyl-cyanamide] | 19.25
CSc1c(C)cc(OCc2ccc(Cl)nc2)cc1C [Example 12, 2-chloro-5-(3,5-dimethyl-4-methylsulfanyl-phenoxymethyl)-pyridine] | 19.25
O=[N+]([O-])/N=C1\NCCN1Cc1ccc(Cl)nc1 [Comparative Example 1, imidachloprid, reference compound] | 17.25

Same assay, conditions: calculated from number of dead aphids; 20 aphids; 9.6% w/w reagent diluted 1000 times; 24 hours; four replicates

SMILES | Kill ratio
O=[N+]([O-])/N=C1\NCCN1Cc1ccc(Cl)nc1 [Comparative Example 1, imidachloprid, reference compound] | 85.90

Same assay, conditions: calculated from number of dead aphids; 20 aphids; 9.6% w/w reagent diluted 1000 times; 24 hours; four replicates; read-out: Kill ratio

SMILES | pest or weed control at 96 µg/mL
CC(C)Oc1ccccc1OCc1ccc(Cl)nc1 [Example 11, 2-chloro-5-(2-isopropoxy-phenoxymethyl)-pyridine] | 88.5%
CS/C(C)=N/OCc1ccc(Cl)nc1 [Example 10, N-(6-chloro-pyridin-3-ylmethoxy)-thioacetimidic Acid Methyl Ester] | 87.2%
Clc1ccc(COc2cccc3ccccc23)cn1 [Example 13, 2-chloro-5-(naphthalen-1-yloxymethyl)-pyridine] | 84.6%
CC1(C)Cc2cccc(OCc3ccc(Cl)nc3)c2O1 [Example 14, 2-chloro-5-(2,2-dimethyl-2,3-dihydro-benzofuran-7-yloxymethyl)-pyridine] | 83.3%
CNC(=O)Nc1nc2ccccc2n1Cc1csc(Cl)n1 [Example 16, 1-[1-(2-chloro-thiazol-4-ylmethyl)-1H-benzoimidazol-2-yl]-3-methyl-urea] | 83.3%
CSc1c(C)cc(OCc2ccc(Cl)nc2)cc1C [Example 12, 2-chloro-5-(3,5-dimethyl-4-methylsulfanyl-phenoxymethyl)-pyridine] | 96.2%
